US8501946B2 (Glaxo Group Limited, priority 2009, dated 2013)

These compounds were tested against T1, human recombinant P2X7 receptors (Homo sapiens, UniProt Q99572) (assay: Ethidium Accumulation Assay 2 (HEK293 cells, ATP-induced ethidium uptake)). Conditions: HEK293 cells expressing human P2X7; sometimes mean of more than one measurement; read-out: Assay 2 (antagonist pIC50 for blocking ATP responses) (converted).
T1 construct: expressed in transfected cells
T1 sequence (Q99572 1-595): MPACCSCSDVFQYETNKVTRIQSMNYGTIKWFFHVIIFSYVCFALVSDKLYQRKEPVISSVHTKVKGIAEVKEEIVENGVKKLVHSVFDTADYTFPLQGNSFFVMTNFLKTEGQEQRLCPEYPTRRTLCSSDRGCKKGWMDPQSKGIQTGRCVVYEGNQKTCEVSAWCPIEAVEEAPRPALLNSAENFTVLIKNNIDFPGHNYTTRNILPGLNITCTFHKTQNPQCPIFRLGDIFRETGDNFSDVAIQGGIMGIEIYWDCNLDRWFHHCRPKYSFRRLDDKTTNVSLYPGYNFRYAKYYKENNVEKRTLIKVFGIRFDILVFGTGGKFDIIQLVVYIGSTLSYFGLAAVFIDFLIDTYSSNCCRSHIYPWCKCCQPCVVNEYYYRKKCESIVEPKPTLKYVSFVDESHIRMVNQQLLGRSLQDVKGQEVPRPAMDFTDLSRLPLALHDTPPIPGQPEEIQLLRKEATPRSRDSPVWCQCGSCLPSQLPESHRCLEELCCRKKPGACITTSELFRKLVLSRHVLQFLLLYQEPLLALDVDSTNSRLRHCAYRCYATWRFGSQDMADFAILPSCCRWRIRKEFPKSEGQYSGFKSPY
Format: cell-based
Experimental: Eithidium Accumulation Assay 2
Human Embryonic Kidney (HEK) 293 cells, stably expressing human recombinant P2X7 receptors, were grown in poly-D-lysine pretreated 96 well plates for 24 hours at 37° C.
The cells were washed with assay buffer (100 μL), before addition of 25 μL of assay buffer and then 25 ul of assay buffer containing the putative P2X7 receptor antagonist compound. The cells were then incubated at room temperature (19-21° C.) for 30 min before addition of ATP solution (50 μM). […] Antagonist pIC50 values for blocking ATP responses were determined using iterative curve fitting techniques.

IC50 [nM]	Compound
< 10	Cc1c(C(=O)N2CCn3c(nnc3-c3cnccn3)C2)ccc(F)c1Cl [Example 146, 7-[(3-chloro-4-fluoro-2-methylphenyl)carbonyl]-3-(2-pyrazinyl)-5,6,7,8-tetrahydro[1,2,4]triazolo[4,3-a]pyrazine]
< 100	Cc1cc(Cl)ccc1C(=O)N1CCn2c(nnc2-c2cnccn2)C1 [Example 145, 7-[(4-chloro-2-methylphenyl)carbonyl]-3-(2-pyrazinyl)-5,6,7,8-tetrahydro[1,2,4]triazolo[4,3-a]pyrazine]
< 10	Cc1c(C(=O)N2CCn3c(nnc3-c3cnccn3)C2)ccc(F)c1F [Example 151, 7-[(3,4-difluoro-2-methylphenyl)carbonyl]-3-(2-pyrazinyl)-5,6,7,8-tetrahydro[1,2,4]triazolo[4,3-a]pyrazine]
< 100	Cc1ccnc(-c2nnc3n2CCN(C(=O)c2ccc(Cl)c(F)c2Cl)C3)c1 [Example 172, 7-[(2,4-dichloro-3-fluorophenyl)carbonyl]-3-(4-methyl-2-pyridinyl)-5,6,7,8-tetrahydro[1,2,4]triazolo[4,3-a]pyrazine]
< 100	O=C(c1ccc(Cl)cc1Cl)N1CCn2c(nnc2-c2nccs2)C1 [Example 199, 7-[(2,4-Dichlorophenyl)carbonyl]-3-(1,3-thiazol-2-yl)-5,6,7,8-tetrahydro[1,2,4]triazolo[4,3-a]pyrazine]
< 100	Cc1scnc1-c1nnc2n1CCN(C(=O)c1ccc(Cl)cc1Cl)C2 [Example 206, 7-[(2,4-dichlorophenyl)carbonyl]-3-(5-methyl-1,3-thiazol-4-yl)-5,6,7,8-tetrahydro[1,2,4]triazolo[4,3-a]pyrazine]
< 100	O=C(c1ccc(Cl)cc1Cl)N1CCn2c(nnc2-c2ccns2)C1 [Example 158, 7-[(2,4-dichlorophenyl)carbonyl]-3-(5-isothiazolyl)-5,6,7,8-tetrahydro[1,2,4]triazolo[4,3-a]pyrazine]
< 100	Cc1scnc1-c1nnc2n1CCN(C(=O)c1cccc(Cl)c1C)C2 [Example 207, 7-[(3-chloro-2-methylphenyl)carbonyl]-3-(5-methyl-1,3-thiazol-4-yl)-5,6,7,8-tetrahydro[1,2,4]triazolo[4,3-a]pyrazine]
< 10	Cc1ccnc(-c2nnc3n2CCN(C(=O)c2ccc(Cl)c(F)c2Cl)C3)n1 [Example 177, 7-[(2,4-dichloro-3-fluorophenyl)carbonyl]-3-(4-methyl-2-pyrimidinyl)-5,6,7,8-tetrahydro[1,2,4]triazolo[4,3-a]pyrazine]
< 100	O=C(c1ccc(Cl)c(F)c1Cl)N1CCn2c(nnc2-c2ccns2)C1 [Example 178, 7-[(2,4-dichloro-3-fluorophenyl)carbonyl]-3-(5-isothiazolyl)-5,6,7,8-tetrahydro[1,2,4]triazolo[4,3-a]pyrazine]
< 10	O=C(c1ccc(Cl)c(F)c1Cl)N1CCn2c(nnc2-c2ncns2)C1 [Example 186, 7-[(2,4-Dichloro-3-fluorophenyl)carbonyl]-3-(1,2,4-thiadiazol-5-yl)-5,6,7,8-tetrahydro[1,2,4]triazolo[4,3-a]pyrazine]
< 100	Cc1csnc1-c1nnc2n1CCN(C(=O)c1ccc(Cl)c(F)c1Cl)C2 [Example 203, 7-[(2,4-dichloro-3-fluorophenyl)carbonyl]-3-(4-methyl-3-isothiazolyl)-5,6,7,8-tetrahydro[1,2,4]triazolo[4,3-a]pyrazine]
< 10	Cc1scnc1-c1nnc2n1CCN(C(=O)c1ccc(Cl)c(F)c1Cl)C2 [Example 197, 7-[(2,4-Dichloro-3-fluorophenyl)carbonyl]-3-(5-methyl-1,3-thiazol-4-yl)-5,6,7,8-tetrahydro[1,2,4]triazolo[4,3-a]pyrazine]
< 100	O=C(c1ccc(Cl)cc1Cl)N1CCn2c(nnc2-c2ncns2)C1 [Example 205, 7-[(2,4-dichlorophenyl)carbonyl]-3-(1,2,4-thiadiazol-5-yl)-5,6,7,8-tetrahydro[1,2,4]triazolo[4,3-a]pyrazine]
< 100	Cc1ccc(-c2nnc3n2CCN(C(=O)c2ccc(F)c(Cl)c2Cl)C3)o1 [Example 167, 7-[(2,3-Dichloro-4-fluorophenyl)carbonyl]-3-(5-methyl-2-furanyl)-5,6,7,8-tetrahydro[1,2,4]triazolo[4,3-a]pyrazine]
< 10	[2H]c1ccnc(-c2nnc3n2CCN(C(=O)c2ccc(Cl)c(F)c2Cl)C3)c1 [Example 182, 7-[(2,4-Dichloro-3-fluorophenyl)carbonyl]-3-(2-pyridinyl)-5,6,7,8-tetrahydro[1,2,4]triazolo[4,3-a]pyrazine-d1]
< 10	Cc1ccc(-c2nnc3n2CCN(C(=O)c2cccc(C(F)(F)F)c2Cl)C3)o1 [Example 159, 7-{[2-chloro-3-(trifluoromethyl)phenyl]carbonyl}-3-(5-methyl-2-furanyl)-5,6,7,8-tetrahydro[1,2,4]triazolo[4,3-a]pyrazine]
< 100	O=C(c1ccc(Cl)cc1Cl)N1CCn2c(nnc2-c2cnsn2)C1 [Example 160, 7-[(2,4-dichlorophenyl)carbonyl]-3-(1,2,5-thiadiazol-3-yl)-5,6,7,8-tetrahydro[1,2,4]triazolo[4,3-a]pyrazine]
< 100	O=C(c1ccc(Cl)c(F)c1Cl)N1CCn2c(nnc2-c2ccc(F)cc2O)C1 [Example 150, 2-{7-[(2,4-dichloro-3-fluorophenyl)carbonyl]-5,6,7,8-tetrahydro[1,2,4]triazolo[4,3-a]pyrazin-3-yl}-5-fluorophenol]
< 10	O=C(c1cccc(C(F)(F)F)c1Cl)N1CCn2c(nnc2-c2ncccc2O)C1 [Example 166, 2-(7-{[2-Chloro-3-(trifluoromethyl)phenyl]carbonyl}-5,6,7,8-tetrahydro[1,2,4]triazolo[4,3-a]pyrazin-3-yl)-3-pyridinol]
< 10	[2H]c1ccc(-c2nnc3n2CCN(C(=O)c2ccc(Cl)c(F)c2Cl)C3)nc1 [Example 183, 7-[(2,4-Dichloro-3-fluorophenyl)carbonyl]-3-(2-pyridinyl)-5,6,7,8-tetrahydro[1,2,4]triazolo[4,3-a]pyrazine-d1]
< 10	O=C(c1ccc(Cl)c(F)c1Cl)N1CCn2c(nnc2-c2ccccn2)C1 [Example 173, 7-[(2,4-dichloro-3-fluorophenyl)carbonyl]-3-(2-pyridinyl)-5,6,7,8-tetrahydro[1,2,4]triazolo[4,3-a]pyrazine]
< 10	O=C(c1cccc(Cl)c1Cl)N1CCn2c(nnc2-c2ncns2)C1 [Example 192, 7-[(2,3-Dichlorophenyl)carbonyl]-3-(1,2,4-thiadiazol-5-yl)-5,6,7,8-tetrahydro [1,2,4]triazolo[4,3-a]pyrazine]
< 501	Cc1ccc(C(=O)N2CCn3c(nnc3-c3cnccn3)C2)c(C(F)(F)F)c1 [Example 148, 7-{[4-methyl-2-(trifluoromethyl)phenyl]carbonyl}-3-(2-pyrazinyl)-5,6,7,8-tetrahydro[1,2,4]triazolo[4,3-a]pyrazine]
< 10	O=C(c1ccc(Cl)c(F)c1Cl)N1CCn2c(nnc2-c2cnsn2)C1 [Example 190, 7-[(2,4-Dichloro-3-fluorophenyl)carbonyl]-3-(1,2,5-thiadiazol-3-yl)-5,6,7,8-tetrahydro[1,2,4]triazolo[4,3-a]pyrazine]
< 100	Cc1cnc(-c2nnc3n2CCN(C(=O)c2ccc(Cl)c(F)c2Cl)C3)s1 [Example 188, 7-[(2,4-Dichloro-3-fluorophenyl)carbonyl]-3-(5-methyl-1,3-thiazol-2-yl)-5,6,7,8-tetrahydro[1,2,4]triazolo[4,3-a]pyrazine]
< 100	O=C(c1ccc(F)cc1Cl)N1CCn2c(nnc2-c2nccs2)C1 [Example 144, 7-[(2-chloro-4-fluorophenyl)carbonyl]-3-(1,3-thiazol-2-yl)-5,6,7,8-tetrahydro[1,2,4]triazolo[4,3-a]pyrazine]

These compounds were tested against T1, human recombinant P2X7 receptors (assay: Ethidium Accumulation Assay 1 (HEK293 cells, ATP-induced ethidium uptake)). Conditions: HEK293 cells expressing human P2X7; 1 mM ATP; sometimes mean of more than one measurement; read-out: Assay 1 (antagonist pIC50 for blocking ATP responses) (converted).
Format: cell-based

IC50 [nM]	Compound
< 501	O=C(c1ccc(F)cc1Cl)N1CCn2c(nnc2-c2cccnn2)C1 [Example 59, 7-[(2-chloro-4-fluorophenyl)carbonyl]-3-(3-pyridazinyl)-5,6,7,8-tetrahydro[1,2,]triazolo [4,3-a]pyrazine]
< 10	Cc1cccnc1-c1nnc2n1CCN(C(=O)c1cccc(C(F)(F)F)c1Cl)C2 [Example 28, 7-{[2-chloro-3-(trifluoromethyl)phenyl]carbonyl}-3-(3-methyl-2-pyridinyl)-5,6,7,8-tetrahydro[1,2,4]triazolo [4,3-a]pyrazine]
< 100	Cn1cccc1-c1nnc2n1CCN(C(=O)c1ccc(F)cc1Cl)C2 [Example 82, -[(2-chloro-4-fluorophenyl)carbonyl]-3-(1-methyl-1H-pyrrol-2-yl)-5,6,7,8-tetrahydro[1,2,4]triazolo [4,3-a]pyrazine]
